From patent US9439431B2, “Pesticidal mixtures comprising isoxazoline derivatives” (Syngenta Participations AG, priority 2011, dated 2016)

How the values were obtained:
Format in all cases: cell-based
[1] = test system: Mycosphaerella arachidis (syn. Cercospora arachidicola); assay: Mycosphaerella arachidis (syn. Cercospora arachidicola) growth inhibition in nutrient broth (microtiter plate, photometric); settings: approximately 5-6 days
Procedure: (§1) Brown leaf spot of groundnut (peanut): Conidia of the fungus from cryogenic storage were directly mixed into nutrient broth (potato dextrose broth). After placing a (DMSO) solution of the test compounds into a microtiter plate (96-well format) the nutrient broth containing the fungal spores was added. The test plates were incubated at 24° C. and the inhibition of growth was determined photometrically after approximately 5-6 days at 620 nm. Two replicates per treatment were evaluated

Septoria tritici = Septoria tritici (leaf blotch) growth inhibition in nutrient broth (microtiter plate, photometric); settings: 72 hours
Procedure: as §1, with “Conidia” for “Brown leaf spot of groundnut (peanut): Conidia”, “72 hours.” for “approximately 5-6 days at 620 nm.”, “evaluated.” for “evaluated”

Gaeumannomyces graminis = Gaeumannomyces graminis growth inhibition in nutrient broth (microtiter plate, photometric); settings: 48 hours
Procedure: as §1, with “Mycelial fragments” for “Brown leaf spot of groundnut (peanut): Conidia”, “48 hours” for “approximately 5-6 days”, “evaluated.” for “evaluated”

Cn1cc(C(=O)Nc2cccc3c2C2CCC3C2=C(Cl)Cl)c(C(F)F)n1 (centres unmarked) [C-IIIA]
Observed control % ([1]; C-IIIA 0.0156 ppm alone): 20.0%
Observed control % ([1]; C-IIIA 0.0313 ppm alone): 90.0%

CC(C1CC1)C(O)(Cn1cncn1)c1ccc(Cl)cc1 (centres unmarked) [cypropconazole, Cyproconazole]
Observed control % (Septoria tritici; cypropconazole 0.0625 ppm alone): 0.0%
Observed control % (Septoria tritici; cypropconazole 0.1250 ppm alone): 0.0%
Observed control % (Septoria tritici; cypropconazole 0.2500 ppm alone): 0.0%
Observed control % (Septoria tritici; cypropconazole 0.5000 ppm alone): 70.0%
Observed control % (Septoria tritici; cypropconazole 1.0000 ppm alone): 90.0%
Observed control % (Septoria tritici; cypropconazole 2.0000 ppm alone): 90.0%

CO/C=C(/C(=O)OC)c1ccccc1Oc1cc(Oc2ccccc2C#N)ncn1 [azoxystrobin, Azoxystrobin]
Observed control % (Gaeumannomyces graminis; azoxystrobin 0.0625 ppm alone): 0.0%
Observed control % (Gaeumannomyces graminis; azoxystrobin 0.1250 ppm alone): 20.0%
Observed control % (Gaeumannomyces graminis; azoxystrobin 0.2500 ppm alone): 20.0%
Observed control % (Gaeumannomyces graminis; azoxystrobin 0.5000 ppm alone): 50.0%
Observed control % (Gaeumannomyces graminis; azoxystrobin 1.0000 ppm alone): 50.0%
Observed control % (Gaeumannomyces graminis; azoxystrobin 2.0000 ppm alone): 50.0%
